Data from patent US20250152605A1, “METHOD AND DRUG FOR TREATING NEURONAL CEROID LIPOFUSCINOSIS” (priority 2021, published 2025).

System: Cln3 KO mice
Experiment: Morris water maze
Assay type: in vivo, mouse
Details: 7th day test
Procedure: To test the difference in learning and memory abilities of Cln3 KO mice and wild-type mice, and the effect of Compound G on learning and memory abilities of Cln3 KO mice, a Morris water maze was performed, with specific procedures as follows: the mice to be tested were kept in single cages for more than 1 week to adapt to the environment; the maze used in this study was a circular pool with a diameter of 120 cm and a depth of 40 cm; the pool wall is divided into four quadrants including northeast (NE), northwest (NW), southwest (SW) and southeast (SE) with circles, squares, triangles and crosses respectively. The platform was placed at a fixed position in the SW quadrant with a diameter of 11 cm and a height of 18 cm; milky white water containing titanium dioxide was added to the pool, the amount of added water being just short of the platform is suitable; the water temperature was adjusted to about 22° C.; the mouse was gently put into the water from the designated position shown in Table 5, and the movement of the mouse within 60 seconds was recorded through the video equipment. If the mouse found the platform within 60 seconds, its time to find the platform was recorded; if the mouse could not find the platform within 60 seconds, it was guided to the platform and held for 15 seconds.
The mice were removed from the platform, wiped clean with a dry towel and returned to their cages. Each mouse was trained 4 times a day, with a 30-minute interval between each training, for a total of 6 days, and mice that cannot swim were excluded; on the Day 7, the platform in the water was taken out, and then the mice were gently put into the water from the NE direction, and the movement of the mouse within 60 seconds was recorded with a video equipment. The time it took for the mouse to find the platform for the first time and the time the mouse stayed in the SW quadrant were analyzed and counted using Noldus software. In addition, the experimenter manually counted the number of times the mouse crossed the location of the original platform within 60 seconds.
Starting from day 21 on which the Cln3 KO mice were weaned, treatment of Compound G was continuously provided. […]
First, the mice were trained in the water maze for 6 days, and the time it took for them to find the underwater platform was recorded. […] The time that the mice spent reaching the position of the original platform for the first time, the number of shuttles at the position of the original platform and the time stayed in the quadrant of the original platform were recorded, which characterized whether they have learned the position of the underwater platform through the first 6 days of training.

Structure (SMILES): C/C=C1\C(=O)C[C@H]2[C@@H]3CCC4=CC(=O)CC[C@]4(C)[C@H]3CC[C@]12C [Compound G, (Z)-guggulsterone]
- movement speed of the mice in water: no significant effect
- number of times they shuttle at the position of the original platform: closer to that of the wild-type mice
- time spent reaching the position of the original platform for the first time: effectively shorten
- time stayed in the quadrant of the original platform: extended the time stayed in the quadrant of the original platform to a certain extent
